What was measured:
Sprague Dawley rats = experiment: Capsaicin induced secondary mechanical hyperalgesia model; type: in vivo; conditions: po, 1 h; 30 mg/kg p.o., 60 minutes before testing; relative to vehicle; secondary mechanical hyperalgesia 180 minutes after capsaicin; rat
Method: (iii) In Vivo Data—Capsaicin Induced Secondary Mechanical Hyperalgesia Model
Sprague Dawley rats were briefly restrained, and capsaicin was administered at 10 μg in 10 μL of vehicle by intraplantar injection into the center of the right hind paw. Secondary mechanical hyperalgesia (SMH) was measured at the heel away from the site of injection 180 minutes following capsaicin exposure. Compounds and gabapentin (positive control), were administered p.o. 60 minutes before testing (2 hours after capsaicin) or i.p. 30 minutes before testing (2.5 hours after capsaicin). SMH was measured using calibrated von Frey filaments (Stoelting, Woodale, Ill.). Following the 1 hour habituation in the testing room, rats were moved to individual plexiglass chambers that sit on top of a wire mesh to allow for access for stimulation of the plantar surface of the hind paws. Rats were allowed to acclimate to the new chambers for 15 minutes before the onset of testing. The paw withdrawal threshold was determined by increasing and decreasing stimulus intensity (force: g) and calculated using Dixon's up-down method (Chaplan, S R; et al. J. Neuroscience Methods 1994; 53: 55-63). The filaments (maximum force of 15.0 g) were held in place for 8 seconds or until there was a withdrawal response from the mechanical stimulation.

Human Cav3.2 = biological target: T1, Human Cav3.2 (Homo sapiens, UniProt O95180); experiment: Electrophysiologic (whole-cell patch-clamp) assessment of calcium channel activity, HEK293 cells stably expressing hCav3.2; type: cell-based; conditions: −77 mV, GeoMean
T1 construct: expressed in transfected cells
Method: (ii) In Vitro Methods—Electrophysiologic Assessment of Calcium Channel Activity
Patch-clamp recordings were performed using HEK293 cells stably expressing hCav3.2. Cells were plated in T175 flasks and grown at 37° C. and under 5% CO2 to approximately 50% confluency. On the day of the experiment, cells were harvested with Detachin™ cell detachment solution (Genlantis, San Diego, Calif.) and maintained in serum-free culture medium supplemented with 25 mM HEPES up to several hours prior to experiment. Whole-cell patch-clamp recordings were obtained using extracellular saline consisting of (mM): 87.5 CsCl, 40 TEA-Cl, 5 CaCl2, 1 MgCl2, 10 HEPES, 10 glucose. The pH was adjusted to 7.2 with CsOH and the osmolarity was adjusted to approximately 310 mOsm with sucrose. Intracellular solution consisted of (mM): 112 CsCl, 27 CsF, 2 NaCl, 8.2 EGTA, 10 HEPES. Prior to an experiment 4 mM Mg2ATP was added and the pH was adjusted to 7.2 with CsOH with an osmolarity of approximately 290 mOsm. A two-pulse voltage protocol was utilized to assess compound inhibition. First, cells were held with an 8 second pre-pulse at −100 mV prior to a 160 millisecond test pulse to −30 mV. This was followed by an 8 second pre-pulse at approximately −75 mV prior to a […] test pulse to −30 mV. Increasing concentrations of antagonist were applied to individual cells in a multi-addition format with 5 minutes in each test concentration. For each cell, responses were normalized to dimethyl sulfoxide vehicle control to generate concentration-response curves.

T1 sequence (O95180 whole entry): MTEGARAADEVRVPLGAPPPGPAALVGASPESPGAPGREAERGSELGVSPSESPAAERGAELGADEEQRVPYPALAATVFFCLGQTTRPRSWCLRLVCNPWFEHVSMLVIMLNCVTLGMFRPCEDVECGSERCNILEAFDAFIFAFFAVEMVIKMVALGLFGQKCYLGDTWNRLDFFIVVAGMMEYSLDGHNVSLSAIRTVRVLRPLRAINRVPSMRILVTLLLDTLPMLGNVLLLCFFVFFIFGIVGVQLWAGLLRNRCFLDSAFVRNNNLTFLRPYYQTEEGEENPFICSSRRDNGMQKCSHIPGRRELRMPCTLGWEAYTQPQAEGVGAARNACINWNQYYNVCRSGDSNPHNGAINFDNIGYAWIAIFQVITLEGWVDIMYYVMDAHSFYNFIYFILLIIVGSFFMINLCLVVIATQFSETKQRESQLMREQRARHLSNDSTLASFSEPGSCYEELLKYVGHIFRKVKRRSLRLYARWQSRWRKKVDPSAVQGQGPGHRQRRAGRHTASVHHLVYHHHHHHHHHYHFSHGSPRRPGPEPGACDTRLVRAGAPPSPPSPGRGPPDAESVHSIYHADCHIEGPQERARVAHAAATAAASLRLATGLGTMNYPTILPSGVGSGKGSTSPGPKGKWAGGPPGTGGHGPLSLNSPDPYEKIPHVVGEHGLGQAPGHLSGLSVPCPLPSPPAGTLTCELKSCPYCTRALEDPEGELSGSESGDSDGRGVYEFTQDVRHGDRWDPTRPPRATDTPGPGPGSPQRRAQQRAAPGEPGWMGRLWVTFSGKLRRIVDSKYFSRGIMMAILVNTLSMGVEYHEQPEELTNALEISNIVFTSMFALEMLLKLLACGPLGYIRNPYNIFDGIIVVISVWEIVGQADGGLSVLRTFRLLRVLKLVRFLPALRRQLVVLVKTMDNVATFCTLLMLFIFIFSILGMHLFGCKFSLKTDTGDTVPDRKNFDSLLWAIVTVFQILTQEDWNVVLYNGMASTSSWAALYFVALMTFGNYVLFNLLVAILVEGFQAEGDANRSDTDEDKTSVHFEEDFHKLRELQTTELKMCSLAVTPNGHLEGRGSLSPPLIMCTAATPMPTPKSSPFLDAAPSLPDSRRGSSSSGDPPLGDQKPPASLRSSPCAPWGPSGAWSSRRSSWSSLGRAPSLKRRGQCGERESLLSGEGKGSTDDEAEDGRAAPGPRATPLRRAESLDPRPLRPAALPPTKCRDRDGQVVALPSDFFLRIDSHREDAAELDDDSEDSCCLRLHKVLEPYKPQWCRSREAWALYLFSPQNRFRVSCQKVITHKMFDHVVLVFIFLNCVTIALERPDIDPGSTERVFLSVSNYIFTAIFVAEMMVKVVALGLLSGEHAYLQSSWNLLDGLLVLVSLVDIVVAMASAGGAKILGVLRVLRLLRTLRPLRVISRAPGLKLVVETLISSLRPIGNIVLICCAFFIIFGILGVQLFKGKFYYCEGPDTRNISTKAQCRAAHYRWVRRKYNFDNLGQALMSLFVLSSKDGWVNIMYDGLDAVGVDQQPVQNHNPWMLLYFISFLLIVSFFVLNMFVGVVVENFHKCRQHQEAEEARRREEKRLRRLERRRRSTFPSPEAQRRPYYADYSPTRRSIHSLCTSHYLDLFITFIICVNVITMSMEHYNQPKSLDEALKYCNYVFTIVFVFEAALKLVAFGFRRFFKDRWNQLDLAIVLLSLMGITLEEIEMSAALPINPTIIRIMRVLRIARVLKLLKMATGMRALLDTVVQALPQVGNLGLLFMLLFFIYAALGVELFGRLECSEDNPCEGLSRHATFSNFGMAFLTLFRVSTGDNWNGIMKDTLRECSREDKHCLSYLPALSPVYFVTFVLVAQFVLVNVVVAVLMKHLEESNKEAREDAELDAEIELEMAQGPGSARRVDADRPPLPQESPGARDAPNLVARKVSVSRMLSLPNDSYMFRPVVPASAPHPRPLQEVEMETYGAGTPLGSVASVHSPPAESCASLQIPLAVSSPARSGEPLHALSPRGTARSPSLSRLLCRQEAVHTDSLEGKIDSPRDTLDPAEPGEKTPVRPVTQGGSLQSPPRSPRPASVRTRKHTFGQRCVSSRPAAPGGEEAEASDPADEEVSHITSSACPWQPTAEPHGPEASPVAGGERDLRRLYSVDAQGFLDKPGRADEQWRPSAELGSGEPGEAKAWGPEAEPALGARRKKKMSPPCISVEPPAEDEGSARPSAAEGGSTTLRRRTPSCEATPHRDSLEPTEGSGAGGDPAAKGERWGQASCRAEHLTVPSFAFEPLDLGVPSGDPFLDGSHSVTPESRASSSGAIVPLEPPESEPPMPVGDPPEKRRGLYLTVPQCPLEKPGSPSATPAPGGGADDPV

| SMILES | inhibition in vivo at 30 mg/kg (Sprague Dawley rats) [%] | IC50 (Human Cav3.2) [µM] |
| --- | --- | --- |
| O=C(CN1CCCC(c2ccccc2)(c2ccccc2)C1=O)N1C[C@@H]2CN[C@@H](C2)C1 (relative stereo) [Example 13, 1-{2-[(1S*,5S*)-3,6-Diazabicyclo[3.2.1]oct-3-yl]-2-oxoethyl}-3,3-diphenylpiperidin-2-one] | 60 | 3.6 |
| O=C(CN1CCCC(c2ccccc2)(c2ccccc2)C1=O)NC1CCNCC1 [Example 1, 2-(2-Oxo-3,3-diphenylpiperidin-1-yl)-N-(piperidin-4-yl)acetamide] |  | > 10 |
| CC1(C)C(=O)NCCN1C(=O)CN1CCCC(c2ccccc2)(c2ccccc2)C1=O [Example 2, 3,3-Dimethyl-4-[(2-oxo-3,3-diphenylpiperidin-1-yl)acetyl]piperazin-2-one] |  | 2.77 |
| O=C(CN1CCCC(c2ccccc2)(c2ccccc2)C1=O)N1C[C@@H]2CCCN[C@@H]2C1 [Example 3, 1-{2-[(4aS,7aS)-Octahydro-6H-pyrrolo[3,4-b]pyridin-6-yl]-2-oxoethyl}-3,3-diphenylpiperidin-2-one] | 31 | 4.35 |
| O=C(CN1CCCC(c2ccccc2)(c2ccccc2)C1=O)N1C[C@H]2CCCN[C@H]2C1 [Example 4, 1-{2-[(4aR,7aR)-Octahydro-6H-pyrrolo[3,4-b]pyridin-6-yl]-2-oxoethyl}-3,3-diphenylpiperidin-2-one] | 19 | > 10 |
| O=C(CN1CCCC(c2ccccc2)(c2ccccc2)C1=O)N1CCC[C@H]2CNC[C@H]21 [Example 5, 1-{2-[(4aS,7aS)-Octahydro-1H-pyrrolo[3,4-b]pyridin-1-yl]-2-oxoethyl}-3,3-diphenylpiperidin-2-one] |  | 1.6 |
| O=C(CN1CCCC(c2ccccc2)(c2ccccc2)C1=O)N1CC2CNCC2C1 (stereo not shown) [Example 6, 1-(2-Hexahydropyrrolo[3,4-c]pyrrol-2(1H)-yl-2-oxoethyl)-3,3-diphenylpiperidin-2-one] | 74 | 5.31 |
| O=C(CN1CCCC(c2ccccc2)(c2ccccc2)C1=O)N1CC2(CCNCC2)C1 [Example 7, 1-[2-(2,7-Diazaspiro[3.5]non-2-yl)-2-oxoethyl]-3,3-diphenylpiperidin-2-one] | 19 | 5.8 |
| O=C(CN1CCCC(c2ccccc2)(c2ccccc2)C1=O)NC[C@H]1CCCN1 [Example 8, 2-(2-Oxo-3,3-diphenylpiperidin-1-yl)-N-[(2R)-pyrrolidin-2-ylmethyl]acetamide] |  | > 10 |
| O=C(CN1CCCC(c2ccccc2)(c2ccccc2)C1=O)NC[C@@H]1CCCN1 [Example 9, 2-(2-Oxo-3,3-diphenylpiperidin-1-yl)-N-[(2S)-pyrrolidin-2-ylmethyl]acetamide] |  | 5.86 |
| O=C1CN(C(=O)CN2CCCC(c3ccccc3)(c3ccccc3)C2=O)CCN1 [Example 10, 4-[(2-Oxo-3,3-diphenylpiperidin-1-yl)acetyl]piperazin-2-one] |  | > 10 |
| O=C(CN1CCCC(c2ccccc2)(c2ccccc2)C1=O)NC1CNC1 [Example 11, N-Azetidin-3-yl-2-(2-oxo-3,3-diphenylpiperidin-1-yl)acetamide] |  | 0.56 |
| O=C(CN1CCCC(c2ccccc2)(c2ccccc2)C1=O)N1CCNCC1 [Example 12, 1-(2-Oxo-2-piperazin-1-ylethyl)-3,3-diphenylpiperidin-2-one] | 41 | > 10 |
| O=C(CN1CCC(c2ccc(F)cc2)(c2ccc(F)cc2)C1=O)N1CCNCC1 [Example 14, 3,3-Bis(4-fluorophenyl)-1-(2-oxo-2-piperazin-1-ylethyl)pyrrolidin-2-one] | 52 | 7.75 |
| O=C(CN1CCC(c2ccc(F)cc2)(c2ccc(F)cc2)C1=O)N1CCN2CCC[C@@H]2C1 [Example 15, 3,3-Bis(4-fluorophenyl)-1-{2-[(8aR)-hexahydropyrrolo[1,2-a]pyrazin-2(1H)-yl]-2-oxoethyl}pyrrolidin-2-one] |  | 2.16 |
| O=C(CN1CCC(c2ccc(F)cc2)(c2ccc(F)cc2)C1=O)NC1CNC1 [Example 16, N-Azetidin-3-yl-2-[3,3-bis(4-fluorophenyl)-2-oxopyrrolidin-1-yl]acetamide] |  | 0.82 |
| O=C(CN1CCC(c2ccc(F)cc2)(c2ccc(F)cc2)C1=O)N(C1CCNCC1)C1CC1 [Example 17, 2-[3,3-Bis(4-fluorophenyl)-2-oxopyrrolidin-1-yl]-N-cyclopropyl-N-piperidin-4-ylacetamide] |  | 4.07 |
| O=C(CN1CCC(c2ccc(F)cc2)(c2ccc(F)cc2)C1=O)N(C1CCC1)C1CCNCC1 [Example 18, 2-[3,3-Bis(4-fluorophenyl)-2-oxopyrrolidin-1-yl]-N-cyclobutyl-N-piperidin-4-ylacetamide] | 5 | 9.1 |
| O=C(CN1CCC(c2ccc(F)cc2)(c2ccc(F)cc2)C1=O)N(C1CCCC1)C1CCNCC1 [Example 19, 2-[3,3-Bis(4-fluorophenyl)-2-oxopyrrolidin-1-yl]-N-cyclopentyl-N-piperidin-4-ylacetamide] |  | 1.1 |
| O=C(CN1CCC(c2ccccc2)(c2ccccc2)C1=O)N1CCN(C2CCCCC2)CC1 [Example 21, 1-[2-(4-Cyclohexylpiperazin-1-yl)-2-oxoethyl]-3,3-diphenylpyrrolidin-2-one] |  | 1 |
| CN1CCN(C(=O)CN2CCCC(c3ccccc3)(c3ccccc3)C2=O)CC1 [Example 22, 1-[2-(4-Methylpiperazin-1-yl)-2-oxoethyl]-3,3-diphenylpiperidin-2-one] |  | > 10 |
| O=C(CN1CCCC(c2ccc(F)cc2)(c2ccc(F)cc2)C1=O)N1CCNCC1 [Example 23, 3,3-Bis(4-fluorophenyl)-1-(2-oxo-2-piperazin-1-ylethyl)piperidin-2-one] | -2 |  |
| O=C(CN1CCC(c2ccccc2)(c2ccccc2)C1=O)N1CCNCC1 [Example 24, 1-(2-Oxo-2-piperazin-1-ylethyl)-3,3-diphenylpyrrolidin-2-one] | 52 |  |
